{"source": "EPA's ToxValDB 9.5 (doi:10.2903/j.efsa.2013.3220)", "key": {"[1]": {"tested_on": "Lepomis macrochirus", "conditions": "acute; duration: 96 hours; mortality"}, "[2]": {"tested_on": "Bibionidae", "conditions": "chronic/long-term, duration: 28 days"}, "[3]": {"tested_on": "Daphnia magna", "conditions": "chronic/long-term, duration: 21 days"}, "[4]": {"tested_on": "Rattus norvegicus", "conditions": "for LD50: acute, oral, mortality"}, "[5]": {"tested_on": "Apis mellifera", "conditions": "acute, mortality"}, "[6]": {"tested_on": "Tagia sp."}, "[7]": {"tested_on": "Pimephales promelas", "conditions": "chronic/long-term; duration: 32 days; body weight"}, "[8]": {"tested_on": "Anas platyrhynchos"}, "[9]": {"tested_on": "Zea sp.", "conditions": "acute, duration: 14 days"}, "[10]": {"tested_on": "Canidae", "conditions": "chronic; duration: 1 years; oral; M/F; Dog Other; histopathology: nonneoplastic"}, "[11]": {"tested_on": "Colinus virginianus", "conditions": "for LD50: acute, oral, mortality"}, "[12]": {"tested_on": "Aphidius rhopalosiphi", "assay": "LR50; higher = less toxic", "conditions": "acute; duration: 48 hours; mortality"}, "[13]": {"tested_on": "Typhlodromus pyri", "assay": "LR50; higher = less toxic", "conditions": "chronic/long-term; duration: 7 days; mortality"}}, "data": [{"smiles": "CCO[C@@H]1[C@@H](OC)[C@H](C)O[C@@H](O[C@@H]2C[C@H]3CC[C@@H]4[C@@H](C=C5C(=O)[C@H](C)[C@@H](O[C@H]6CC[C@H](NC)[C@@H](C)O6)CCC[C@H](CC)OC(=O)C[C@H]54)[C@@H]3C2)[C@@H]1OC", "note": "[N-demethyl-175-J]", "values": [{"measurement": "LC50", "setting": "[1]", "value": 2980, "unit": "µg/L"}, {"measurement": "NOEC", "setting": "[2]", "value": 0.617, "unit": "µg/L"}, {"measurement": "NOEC", "setting": "[3]", "value": 0.03, "unit": "µg/L"}, {"measurement": "LD50", "setting": "[4]", "value": 3130, "unit": "mg/kg-day"}]}, {"smiles": "CCO[C@@H]1[C@@H](OC)[C@H](C)O[C@@H](O[C@@H]2C[C@H]3CC[C@@H]4[C@@H](C=C5C(=O)[C@H](C)[C@@H](O[C@H]6CC[C@H](N(C)C=O)[C@@H](C)O6)CCC[C@H](CC)OC(=O)C[C@H]54)[C@@H]3C2)[C@@H]1OC", "note": "[N-demethyl-175-L]", "values": [{"measurement": "LC50", "setting": "[1]", "value": 1550, "unit": "µg/L"}, {"measurement": "NOEC", "setting": "[3]", "value": 0.027, "unit": "µg/L"}]}, {"smiles": "CCO[C@@H]1[C@@H](OC)[C@H](C)O[C@@H](OC2C[C@H]3CC[C@H]4C5CC(=O)O[C@@H](CC)CCC[C@H](O[C@H]6CC[C@H](N(C)C)[C@@H](C)O6)[C@@H](C)C(=O)C5=C[C@H]4[C@@H]3C2)[C@@H]1OC", "note": "(some centres not stated) [Spinetoram]", "values": [{"measurement": "LC50", "setting": "[1]", "value": 2690, "unit": "µg/L"}, {"measurement": "LD50", "setting": "[5]; duration: 48 hours, dermal", "value": 0.024, "unit": "µg/piece"}, {"measurement": "LD50", "setting": "[5]; duration: 72 hours, oral, unspecified", "value": 0.11, "unit": "µg/piece"}, {"measurement": "NOEC", "setting": "[2]; M/F, development", "value": 97.2, "unit": "µg/kg"}, {"measurement": "NOEC", "setting": "[2]; development", "value": 0.75, "unit": "µg/L"}, {"measurement": "LC50", "setting": "[6]; acute, duration: 14 days, mortality", "value": "> 1000", "unit": "mg/kg"}, {"measurement": "NOEC", "setting": "[6]; chronic/long-term, duration: 56 days, reproduction", "value": 18.6, "unit": "mg/kg"}, {"measurement": "NOEC", "setting": "[7]", "value": 0.182, "unit": "mg/L"}, {"measurement": "LD50", "setting": "[8]; acute, oral, unspecified, mortality", "value": "> 2250", "unit": "mg/kg-day"}, {"measurement": "NOEL", "setting": "[8]; reproductive", "value": 149, "unit": "mg/kg-day"}, {"measurement": "LEC", "setting": "[9]; other", "value": "≤ 150", "unit": "g/ha"}, {"measurement": "LEC", "setting": "[9]; seedling emergence", "value": "≤ 150", "unit": "g/ha"}, {"measurement": "NOEC", "setting": "[3]; mobility", "value": 0.0624, "unit": "µg/L"}, {"measurement": "NOAEL", "setting": "[10]", "value": 2.5, "unit": "mg/kg-day"}, {"measurement": "LD50", "setting": "[11]; diet", "value": "> 2040", "unit": "mg/kg-day"}, {"measurement": "LD50", "setting": "[11]", "value": "> 2250", "unit": "mg/kg-day"}, {"measurement": "NOEL", "setting": "[11]; reproduction developmental", "value": 95, "unit": "mg/kg-day"}, {"measurement": "LD50", "setting": "[4]", "value": "> 5000", "unit": "mg/kg-day"}, {"measurement": "NOAEL", "setting": "[4]; reproduction developmental, reproduction", "value": 10, "unit": "mg/kg-day"}, {"measurement": "LR50", "setting": "[12]", "value": 0.0885, "unit": "g/ha"}, {"measurement": "LR50", "setting": "[13]", "value": 0.132, "unit": "g/ha"}]}]}
